Experimental data taken from patent publication US8653062B2, “Compounds as receptor modulators with therapeutic utility” (Allergan, Inc., priority 2009, dated 2014).

Assays:
human S1P1 receptor = target: T1, human S1P1 receptor (Homo sapiens, UniProt P21453); assay: GTP γ35S binding assay for S1P1 activity; assay type: biochemical; conditions: membranes of cells stably expressing S1P1 receptor, 30 min at 25° C.
T1 construct: expressed in transfected cells; membranes used
Method: Compounds were synthesized and tested for S1P1 activity using the GTP γ^35S binding assay. These compounds may be assessed for their ability to activate or block activation of the human S1P1 receptor in cells stably expressing the S1P1 receptor.
GTP γ^35S binding was measured in the medium containing (mM) HEPES 25, pH 7.4, MgCl2 10, NaCl 100, dithitothreitol 0.5, digitonin 0.003%, 0.2 nM GTP γ^35S, and 5 μg membrane protein in a volume of 150 μl. Test compounds were included in the concentration range from 0.08 to 5,000 nM unless indicated otherwise. Membranes were incubated with 100 μM 5′-adenylylimmidodiphosphate for 30 min, and subsequently with 10 μM GDP for 10 min on ice. Drug solutions and membrane were mixed, and then reactions were initiated by adding GTP γ^35S and continued for 30 min at 25° C. Reaction mixtures were filtered over Whatman GF/B filters under vacuum, and washed three times with 3 mL of ice-cold buffer (HEPES 25, pH7.4, MgCl2 10 and NaCl 100). Filters were dried and mixed with scintillant, and counted for ^35S activity using a β-counter. Agonist-induced GTP γ^35S binding was obtained by subtracting that in the absence of agonist. Binding data were analyzed using a non-linear regression method. In case of antagonist assay, the reaction mixture contained 10 nM S1P in the presence of test antagonist at concentrations ranging from 0.08 to 5000 nM.

female C57BL6 mice = assay: Lymphopenia assay in mice; assay type: in vivo; conditions: after 5 hours, 10 mg/Kg subcutaneously, FIG. 1
Method: Test drugs are prepared in a solution containing 3% (w/v) 2-hydroxy propyl β-cyclodextrin (HPBCD) and 1% DMSO to a final concentration of 1 mg/ml, and subcutaneously injected to female C57BL6 mice (CHARLES RIVERS) weighing 20-25 g at the dose of 10 mg/Kg. Blood samples are obtained by puncturing the submandibular skin with a Goldenrod animal lancet at 5, 24, 48, 72, and 96 hrs post drug application. Blood is collected into microvettes (SARSTEDT) containing EDTA tripotassium salt. Lymphocytes in blood samples are counted using a HEMAVET Multispecies Hematology System, HEMAVET HV950FS (Drew Scientific Inc.). (Hale, J. et al Bioorg. & Med. Chem. Lett. 14 (2004) 3351).
A lymphopenia assay in mice; as previously described, was employed to measure the in vivo blood lymphocyte depletion after dosing with 1-{4-[(5-phenylpentyl)oxy]-3-(2-thienyl)benzyl}azetidine-3-carboxylic acid. This S1P1 agonist is useful for S1P-related diseases and exemplified by the lymphopenia in vivo response. […] Lymphocytes in blood samples were counted using a HEMAVET Multispecies Hematology System, HEMAVET HV950FS (Drew Scientific Inc.). […]

T1 sequence (P21453 whole entry): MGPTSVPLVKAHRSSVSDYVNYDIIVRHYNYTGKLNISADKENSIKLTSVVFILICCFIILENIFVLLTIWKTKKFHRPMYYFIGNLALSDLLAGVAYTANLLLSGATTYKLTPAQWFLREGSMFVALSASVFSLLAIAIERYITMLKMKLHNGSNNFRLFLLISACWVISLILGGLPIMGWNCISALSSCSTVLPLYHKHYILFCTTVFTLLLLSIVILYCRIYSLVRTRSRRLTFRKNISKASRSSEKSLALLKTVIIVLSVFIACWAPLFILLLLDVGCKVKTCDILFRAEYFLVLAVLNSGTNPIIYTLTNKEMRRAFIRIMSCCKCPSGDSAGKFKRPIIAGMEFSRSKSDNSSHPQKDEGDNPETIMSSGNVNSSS

SMILES | EC50 (human S1P1 receptor) | lymphocyte count (number of lymphocytes 10^3/μL blood) (female C57BL6 mice)
O=C(O)C1CN(Cc2ccc(OCCCCCc3ccccc3)c(C3=CCCC3)c2)C1 [Compound 15, 1-{3-cyclopent-1-en-1-yl-4-[(5-phenylpentyl)oxy]benzyl}azetidine-3-carboxylic acid] | 13 nM | –
O=C(O)C1CN(Cc2ccc(OCCCCCc3ccccc3)c(-c3cccs3)c2)C1 [Compound 16, 1-{4-[(5-phenylpentyl)oxy]-3-(2-thienyl)benzyl}azetidine-3-carboxylic acid] | 15 nM | < 1 10^3/μL blood
O=C(O)C1CN(Cc2ccc(OCCCCCc3ccccc3)c(-n3cccn3)c2)C1 [Compound 25, 1-{4-[(5-phenylpentyl)oxy]-3-(1H-pyrazol-1-yl)benzyl}azetidine-3-carboxylic acid] | 22 nM | –
O=C(O)C1CN(Cc2ccc(SCCCCCc3ccccc3)c(-c3cccs3)c2)C1 [Compound 26, 1-{4-[(5-phenylpentyl)thio]-3-(2-thienyl)benzyl}azetidine-3-carboxylic acid] | 182 nM | –
O=C(O)C1CC(NCc2ccc(OCCCCCc3ccccc3)c(-c3cccs3)c2)C1 (stereo not drawn) [Compound 28, 3-({4-[(5-phenylpentyl)oxy]-3-(2-thienyl)benzyl}amino)cyclobutanecarboxylic acid] | 15 nM | –
